The assay relates to MCF-7 cells. Put plainly: MCF-7 cell proliferation inhibition. Format: cell-based. The following applies: read-out: IC50 for MCF-7 cell proliferation inhibition. Here is the method:
EMEM medium was purchased from Wisent, and fetal bovine serum was purchased from Biosera. Promega CellTiter-Glo reagent. MCF-7 cells were purchased from the Cell Bank of Type Culture Collection Committee of the Chinese Academy of Sciences. Nivo5 multi-marker analyzer (PerkinElmer).
MCF-7 cells were seeded in a white 384-well plate at 600 cells/[…] suspension/well. The plate was incubated in a CO2 incubator overnight.
On the day of treatment, a day 0 plate coated under the same conditions the day before was taken, centrifuged to remove the medium, added with 25 microliters of Promega CellTiter-Glo reagent to each well, and incubated at room temperature for 10 minutes to stabilize the luminescence signal. Measures were read by PerkinElmer Nivo multi-marker analyzer as an initial value for 0% inhibition.
The test compounds were serially 5-fold diluted to the 10th concentration with a multichannel pipette, i.e., from 2 millimoles to […], and the experiments were set up in duplicate. 47.5 microliters of medium was added to the intermediate plate, 2.5 microliters of serially diluted compounds were transferred to corresponding wells of the intermediate plate, and after mixing, 5 microliters of the mixture per well was transferred to the cell plate. The plate was incubated in a CO2 incubator for 6 days.
After 6 days of co-incubation with the compounds, the plate was centrifuged to remove the medium, added with 25 microliters of Promega CellTiter-Glo reagent to each well, and incubated at room temperature for 10 minutes to stabilize the luminescence signal. Measures were read by PerkinElmer Nivo multi-marker analyzer.
The original data was converted into inhibition rate by the formula: % inhibition=((RFUCmpd−AVER(RFUNeg.Ctrl))/((AVER(RFUDay0)−AVER(RFUNeg.Ctrl))×100%. Curve fitting was conducted and IC50 was calculated.

The mark [1] stands for this setting: Homo sapiens, MCF7, 144 h, 6 days incubation, CellTiter-Glo.
The mark [2] stands for this setting: 6 days incubation, CellTiter-Glo.

Like-named read-outs stand apart in the source and are kept apart here.

Consider `CC/C(=C(/c1ccc(OCCNC/C=C/C(=O)N(C)C)nc1)c1[nH]c2ccccc2c1Cl)c1ccccc1C#N` [Compound 2], for which, under setting [1], the IC50 came out at 0.64 nM.

Regarding `CC/C(=C(/c1ccc(OCCNC/C=C/C(=O)N(C)C)nc1)c1[nH]c2ccccc2c1Cl)c1ccccc1` [Compound 3], the IC50 under setting [1] stood at 0.87 nM.

Regarding `CC/C(=C(/c1ccc(OCCNC/C=C/C(=O)N(C)C)nc1)c1[nH]c2ccccc2c1Cl)c1cccc(OC)c1` [Compound 4], under setting [1], the IC50 was 0.61 nM.

For `CC/C(=C(/c1ccc(OCCN(C/C=C/C(=O)N(C)C)C(=O)OC(C)(C)C)nc1)c1[nH]c2ncccc2c1Cl)c1ccccc1` [Compound 5], the IC50 under setting [2] was 4.74 nM.

As to `C=CC(=O)NCCOc1ccc(/C(=C(/CC)c2ccc(F)cc2Cl)c2[nH]c3ccccc3c2Cl)cn1` [Compound 7], under setting [1], the IC50 came to 4.25 nM.

`CN(C)C(=O)/C=C/CNCCOc1ccc(/C(=C(/CC(F)(F)F)c2c(F)cncc2F)c2[nH]c3ccccc3c2Cl)cn1` [Compound 8]: under setting [2], the IC50 was 2.72 nM.

On to `CN(C)C(=O)/C=C/CNCCOc1ccc(/C(=C(/CC(F)(F)F)c2ccc(F)cc2Cl)c2[nH]c3ccccc3c2Cl)cn1` [Compound 9], for which the IC50 under setting [1] is 2.36 nM.

In the case of `CN(C)C(=O)/C=C/CNCCOc1ccc(/C(=C(/CC(F)(F)F)c2ccccc2C#N)c2[nH]c3ccccc3c2Cl)cn1` [Compound 10], under setting [1], the IC50 was found to be 2.11 nM.

Consider `CC/C(=C(/c1ccc(OCCNC/C=C/C(=O)N(C)C)nc1)c1cc2ccccc2[nH]1)c1ccc(F)cc1Cl` [Compound 11], for which the IC50 under setting [1] stood at 4.13 nM.

In the case of `CC/C(=C(/c1ccc(OCCNC/C=C/C(=O)N(C)C)nc1)c1[nH]c2ccccc2c1Cl)c1ccccc1Cl` [Compound 14], the IC50 under setting [1] was found to be 1 nM.

For the molecule `CC/C(=C(/c1ccc(OCCNC/C=C/C(=O)N(C)C)nc1)c1[nH]c2ccccc2c1Cl)c1ccc(Cl)cc1Cl` [Compound 15], the IC50 under setting [1] worked out at 1.6 nM.

Take `CC/C(=C(/c1ccc(OCCNC/C=C/C(=O)N(C)C)nc1)c1[nH]c2ccccc2c1Cl)c1csc(C)c1` [Compound 16]: the IC50 under setting [1] was determined as 1.11 nM.

For `CC/C(=C(/c1ccc(OCCNC/C=C/C(=O)N(C)C)nc1)c1[nH]c2ccccc2c1Cl)c1ccc(F)cc1F` [Compound 17], under setting [1], the IC50 was found to be 2.67 nM.

As for `CC/C(=C(/c1ccc(OCCNC/C=C/C(=O)N(C)C)nc1)c1[nH]c2ccccc2c1Cl)c1cccc(C)c1` [Compound 18], the IC50 under setting [1] stood at 2.35 nM.

For `CC/C(=C(/c1ccc(OCCNC/C=C/C(=O)N(C)C)nc1F)c1[nH]c2ccccc2c1Cl)c1cccc(OC)c1` [Compound 19], the IC50 under setting [1] turned out to be 2.75 nM.

As for `CC/C(=C(/c1ccc(OCCNC/C=C/C(=O)N(C)C)nc1)c1[nH]c2ccccc2c1C)c1cccc(OC)c1` [Compound 20], under setting [1], the IC50 came to 1.46 nM.

For `CC/C(=C(/c1ccc(OCCNC/C=C/C(=O)N(C)C)cc1)c1[nH]c2ccccc2c1Cl)c1cccc(OC)c1` [Compound 21], under setting [1], the IC50 was 2.21 nM.

On to `CC/C(=C(/c1ccc(OCCNC/C=C/C(=O)N2CCC2)nc1)c1[nH]c2ccccc2c1Cl)c1ccccc1` [Compound 26], for which, under “Homo sapiens, MCF7, 144 h”, the IC50 is 3.82 nM.

`CC/C(=C(/c1ccc(OCCNC/C=C/C(=O)N2CC(CF)C2)nc1)c1[nH]c2ccccc2c1Cl)c1ccccc1` [Compound 27]: the IC50 under setting [1] is 0.49 nM.

For the origin of these results see patent US12221432B2, “Estrogen receptor antagonist” (CHIA TAI TIANQING PHARMACEUTICAL GROUP CO., LTD., priority 2018, dated 2025).
